Laboratory results reported in the kinase profiling compilation of Christmann-Franck et al. (2016).

How the values were obtained:
Test in all cases: KINOMEscan competition binding
Conditions in all cases: compound 10.0 µM
[1] = molecular target: GRK1 (human) (UniProt Q15835)
[2] = molecular target: MAP3K2 (human) (UniProt Q9Y2U5)
[3] = molecular target: TTK (human) (UniProt P33981)
[4] = molecular target: MAP3K15 (human) (UniProt Q6ZN16)
[5] = molecular target: STK16 (human) (UniProt O75716)
[6] = molecular target: CHUK (human) (UniProt O15111)
[7] = molecular target: RIPK2 (human) (UniProt O43353)
[8] = molecular target: CAMK2D (human) (UniProt Q13557)
Sequence of CAMK2D (human) (Q13557 whole entry, looked up): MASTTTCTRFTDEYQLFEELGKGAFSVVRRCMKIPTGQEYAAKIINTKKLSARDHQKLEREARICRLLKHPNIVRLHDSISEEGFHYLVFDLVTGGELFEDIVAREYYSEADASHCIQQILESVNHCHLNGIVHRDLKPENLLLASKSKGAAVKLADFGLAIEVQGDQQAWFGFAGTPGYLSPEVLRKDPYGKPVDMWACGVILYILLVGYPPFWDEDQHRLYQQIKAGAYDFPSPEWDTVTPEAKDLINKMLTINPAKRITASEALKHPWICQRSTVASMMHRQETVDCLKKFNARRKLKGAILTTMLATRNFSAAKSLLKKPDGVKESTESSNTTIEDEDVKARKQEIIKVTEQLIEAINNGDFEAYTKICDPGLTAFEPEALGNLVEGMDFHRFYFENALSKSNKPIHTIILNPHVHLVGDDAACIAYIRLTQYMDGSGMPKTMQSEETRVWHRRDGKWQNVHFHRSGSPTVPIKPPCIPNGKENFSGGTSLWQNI

[9] = molecular target: PRKD2 (human) (UniProt Q9BZL6)
[10] = molecular target: MST1R (human) (UniProt Q04912)
[11] = system: KIT (human), P10721 [L576P]
[12] = molecular target: JAK3 JH1 catalytic (human) (UniProt P52333)
[13] = molecular target: ICK (human) (UniProt Q9UPZ9)
[14] = molecular target: DAPK3 (human) (UniProt O43293)
[15] = molecular target: MARK4 (human) (UniProt Q96L34)
[16] = molecular target: STK11 (human) (UniProt Q15831)
[17] = molecular target: AAK1 (human) (UniProt Q2M2I8)
[18] = molecular target: FYN (human) (UniProt P06241)
[19] = molecular target: RPS6KA2 KD2 (human) (UniProt Q15349)
[20] = molecular target: CDK9 (human) (UniProt P50750)
Sequence of CDK9 (human) (P50750 whole entry, looked up): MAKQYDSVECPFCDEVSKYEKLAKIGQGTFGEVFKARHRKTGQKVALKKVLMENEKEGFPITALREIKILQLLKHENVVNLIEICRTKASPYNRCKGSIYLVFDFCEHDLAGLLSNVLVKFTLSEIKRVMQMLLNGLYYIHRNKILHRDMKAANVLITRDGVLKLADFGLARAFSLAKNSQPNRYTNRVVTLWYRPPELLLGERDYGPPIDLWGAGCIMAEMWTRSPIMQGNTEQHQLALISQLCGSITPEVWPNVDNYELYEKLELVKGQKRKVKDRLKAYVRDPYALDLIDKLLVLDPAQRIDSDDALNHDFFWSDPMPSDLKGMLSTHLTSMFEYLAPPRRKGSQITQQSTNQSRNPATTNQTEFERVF

[21] = molecular target: PTK2B (human) (UniProt Q14289)
[22] = molecular target: PRKCD (human) (UniProt Q05655)
[23] = molecular target: FGR (human) (UniProt P09769)
[24] = molecular target: MLTK (human) (UniProt Q9NYL2)
[25] = molecular target: MAPK14 (human) (UniProt Q16539)
[26] = molecular target: CDK2 (human) (UniProt P24941)
[27] = molecular target: PIP5K1C (human) (UniProt O60331)
[28] = molecular target: PKN3 (M.tuberculosis) (UniProt Q6P5Z2)
[29] = molecular target: JAK1 JH2 pseudokinase (human) (UniProt P23458)
[30] = molecular target: PIP4K2C (human) (UniProt Q8TBX8)
Sequence of PIP4K2C (human) (Q8TBX8 whole entry, looked up): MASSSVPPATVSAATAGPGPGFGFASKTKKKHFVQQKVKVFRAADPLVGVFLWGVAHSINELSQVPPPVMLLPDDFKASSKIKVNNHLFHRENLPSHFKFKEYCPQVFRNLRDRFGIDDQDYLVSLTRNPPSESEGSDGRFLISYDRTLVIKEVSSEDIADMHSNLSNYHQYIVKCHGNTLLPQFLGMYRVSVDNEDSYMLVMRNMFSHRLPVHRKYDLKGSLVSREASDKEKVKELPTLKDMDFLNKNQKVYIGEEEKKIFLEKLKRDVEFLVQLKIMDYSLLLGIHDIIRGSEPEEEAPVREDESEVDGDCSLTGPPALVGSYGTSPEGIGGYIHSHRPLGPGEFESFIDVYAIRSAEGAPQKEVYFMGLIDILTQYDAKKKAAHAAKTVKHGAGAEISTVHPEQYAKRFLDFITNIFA

[31] = molecular target: PAK1 (human) (UniProt Q13153)
[32] = molecular target: CSNK1D (human) (UniProt P48730)
[33] = molecular target: MERTK (human) (UniProt Q12866)
[34] = molecular target: RPS6KA5 KD2 (human) (UniProt O75582)
[35] = molecular target: CAMK1D (human) (UniProt Q8IU85)
[36] = molecular target: LIMK1 (human) (UniProt P53667)
[37] = molecular target: CLK4 (human) (UniProt Q9HAZ1)
Sequence of CLK4 (human) (Q9HAZ1 whole entry, looked up): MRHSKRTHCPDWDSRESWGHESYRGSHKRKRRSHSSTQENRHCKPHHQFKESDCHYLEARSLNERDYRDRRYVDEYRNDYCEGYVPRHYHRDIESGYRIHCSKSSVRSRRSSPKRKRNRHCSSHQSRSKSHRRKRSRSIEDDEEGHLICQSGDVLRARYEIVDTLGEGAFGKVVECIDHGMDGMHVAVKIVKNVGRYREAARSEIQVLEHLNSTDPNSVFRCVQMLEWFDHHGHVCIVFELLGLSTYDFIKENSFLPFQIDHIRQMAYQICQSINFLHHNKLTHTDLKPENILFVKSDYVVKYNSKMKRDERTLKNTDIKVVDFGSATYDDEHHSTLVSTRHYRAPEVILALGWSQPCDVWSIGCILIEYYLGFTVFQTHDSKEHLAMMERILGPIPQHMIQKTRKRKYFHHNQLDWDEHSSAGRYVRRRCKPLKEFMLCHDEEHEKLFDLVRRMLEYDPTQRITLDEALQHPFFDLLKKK

[38] = molecular target: GSK3A (human) (UniProt P49840)
[39] = molecular target: EPHA6 (human) (UniProt Q9UF33)
Sequence of EPHA6 (human) (Q9UF33 whole entry, looked up): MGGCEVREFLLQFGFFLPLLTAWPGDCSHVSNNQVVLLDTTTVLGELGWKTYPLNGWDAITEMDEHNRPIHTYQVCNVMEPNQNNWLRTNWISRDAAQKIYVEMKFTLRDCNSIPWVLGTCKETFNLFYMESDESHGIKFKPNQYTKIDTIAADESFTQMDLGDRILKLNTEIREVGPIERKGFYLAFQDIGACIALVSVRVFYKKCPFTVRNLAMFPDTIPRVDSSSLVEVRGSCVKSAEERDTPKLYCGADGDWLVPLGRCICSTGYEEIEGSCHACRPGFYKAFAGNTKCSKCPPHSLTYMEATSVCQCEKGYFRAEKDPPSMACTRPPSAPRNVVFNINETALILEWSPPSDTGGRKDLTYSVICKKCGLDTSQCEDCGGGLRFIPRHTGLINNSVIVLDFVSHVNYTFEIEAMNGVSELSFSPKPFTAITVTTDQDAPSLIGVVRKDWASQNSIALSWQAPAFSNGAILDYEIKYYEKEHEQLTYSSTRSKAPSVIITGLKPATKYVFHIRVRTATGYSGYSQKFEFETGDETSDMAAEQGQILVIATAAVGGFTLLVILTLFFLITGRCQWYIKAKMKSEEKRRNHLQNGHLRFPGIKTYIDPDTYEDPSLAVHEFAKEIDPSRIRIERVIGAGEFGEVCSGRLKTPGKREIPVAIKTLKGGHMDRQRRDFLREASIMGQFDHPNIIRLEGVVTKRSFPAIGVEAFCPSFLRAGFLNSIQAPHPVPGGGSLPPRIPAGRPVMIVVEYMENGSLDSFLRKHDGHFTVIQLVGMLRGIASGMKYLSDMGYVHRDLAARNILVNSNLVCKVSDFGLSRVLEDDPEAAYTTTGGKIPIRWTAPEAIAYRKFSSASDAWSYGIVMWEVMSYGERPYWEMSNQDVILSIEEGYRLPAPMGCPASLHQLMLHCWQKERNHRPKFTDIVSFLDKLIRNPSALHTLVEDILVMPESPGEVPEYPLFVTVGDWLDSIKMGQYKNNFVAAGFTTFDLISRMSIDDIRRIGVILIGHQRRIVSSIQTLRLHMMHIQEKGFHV

[40] = molecular target: CDKL5 (human) (UniProt O76039)

Sequence of GRK1 (human) (Q15835 whole entry, looked up): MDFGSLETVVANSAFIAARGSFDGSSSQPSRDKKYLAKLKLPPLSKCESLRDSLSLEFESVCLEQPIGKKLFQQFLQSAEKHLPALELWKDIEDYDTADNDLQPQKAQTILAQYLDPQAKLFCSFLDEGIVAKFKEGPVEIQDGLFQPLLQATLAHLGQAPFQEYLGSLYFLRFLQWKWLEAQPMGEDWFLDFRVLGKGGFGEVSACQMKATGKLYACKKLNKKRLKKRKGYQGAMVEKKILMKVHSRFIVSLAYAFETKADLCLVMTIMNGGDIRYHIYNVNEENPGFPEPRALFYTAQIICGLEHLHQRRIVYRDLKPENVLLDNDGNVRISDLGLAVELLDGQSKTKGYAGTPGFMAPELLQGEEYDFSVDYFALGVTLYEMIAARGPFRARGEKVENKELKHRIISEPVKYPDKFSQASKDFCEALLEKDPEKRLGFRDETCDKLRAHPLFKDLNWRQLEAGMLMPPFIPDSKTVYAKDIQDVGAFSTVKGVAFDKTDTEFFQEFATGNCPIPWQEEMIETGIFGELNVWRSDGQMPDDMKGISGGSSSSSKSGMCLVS
Sequence of STK16 (human) (O75716 whole entry, looked up): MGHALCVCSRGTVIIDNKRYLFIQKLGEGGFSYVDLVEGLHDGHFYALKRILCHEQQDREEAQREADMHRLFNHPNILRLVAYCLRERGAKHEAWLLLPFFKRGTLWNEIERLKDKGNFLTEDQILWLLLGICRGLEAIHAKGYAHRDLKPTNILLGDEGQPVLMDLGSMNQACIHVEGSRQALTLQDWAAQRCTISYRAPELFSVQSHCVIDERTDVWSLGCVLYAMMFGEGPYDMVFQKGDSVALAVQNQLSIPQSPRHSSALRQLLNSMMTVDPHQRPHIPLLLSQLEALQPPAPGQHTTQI
Sequence of MAP3K15 (human) (Q6ZN16 whole entry, looked up): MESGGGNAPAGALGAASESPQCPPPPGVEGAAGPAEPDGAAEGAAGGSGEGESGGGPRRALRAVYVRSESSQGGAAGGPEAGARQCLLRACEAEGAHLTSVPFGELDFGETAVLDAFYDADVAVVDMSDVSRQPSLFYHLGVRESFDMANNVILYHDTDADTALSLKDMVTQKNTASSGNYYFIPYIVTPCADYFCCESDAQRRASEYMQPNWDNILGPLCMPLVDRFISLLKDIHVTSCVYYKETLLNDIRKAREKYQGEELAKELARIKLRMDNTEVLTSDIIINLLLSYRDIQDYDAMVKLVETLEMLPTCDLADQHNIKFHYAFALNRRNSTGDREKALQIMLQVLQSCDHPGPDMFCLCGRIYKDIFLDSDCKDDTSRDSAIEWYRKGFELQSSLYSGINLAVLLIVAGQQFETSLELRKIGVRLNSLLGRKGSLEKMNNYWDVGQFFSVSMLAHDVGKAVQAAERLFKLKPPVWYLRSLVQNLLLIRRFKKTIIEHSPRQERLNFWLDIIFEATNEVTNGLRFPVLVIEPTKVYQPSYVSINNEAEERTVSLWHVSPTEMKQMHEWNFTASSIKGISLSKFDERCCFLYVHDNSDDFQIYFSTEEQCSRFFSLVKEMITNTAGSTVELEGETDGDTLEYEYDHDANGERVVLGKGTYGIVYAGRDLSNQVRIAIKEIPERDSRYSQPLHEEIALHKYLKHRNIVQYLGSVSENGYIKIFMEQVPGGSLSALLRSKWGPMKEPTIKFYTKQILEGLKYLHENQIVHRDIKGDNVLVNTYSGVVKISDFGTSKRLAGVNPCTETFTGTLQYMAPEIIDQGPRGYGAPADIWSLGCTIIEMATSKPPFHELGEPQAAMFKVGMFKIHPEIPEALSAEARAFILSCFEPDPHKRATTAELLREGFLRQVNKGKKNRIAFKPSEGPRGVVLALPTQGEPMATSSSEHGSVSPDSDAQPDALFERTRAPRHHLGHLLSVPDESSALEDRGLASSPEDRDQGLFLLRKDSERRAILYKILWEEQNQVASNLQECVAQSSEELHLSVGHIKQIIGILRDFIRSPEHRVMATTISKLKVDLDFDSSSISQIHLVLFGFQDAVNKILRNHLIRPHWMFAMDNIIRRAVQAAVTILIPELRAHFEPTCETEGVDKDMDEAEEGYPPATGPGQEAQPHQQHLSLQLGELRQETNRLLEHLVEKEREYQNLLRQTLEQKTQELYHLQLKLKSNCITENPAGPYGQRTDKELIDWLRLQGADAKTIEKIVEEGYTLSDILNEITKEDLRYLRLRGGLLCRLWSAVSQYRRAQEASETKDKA

SMILES	kinase still bound, per cent of control [1] [%]	kinase still bound, per cent of control [2] [%]	kinase still bound, per cent of control [3] [%]	kinase still bound, per cent of control [4] [%]	kinase still bound, per cent of control [5] [%]	kinase still bound, per cent of control [6] [%]	kinase still bound, per cent of control [7] [%]	kinase still bound, per cent of control [8] [%]	kinase still bound, per cent of control [9] [%]	kinase still bound, per cent of control [10] [%]	kinase still bound, per cent of control [11] [%]	kinase still bound, per cent of control [12] [%]	kinase still bound, per cent of control [13] [%]	kinase still bound, per cent of control [14] [%]	kinase still bound, per cent of control [15] [%]	kinase still bound, per cent of control [16] [%]	kinase still bound, per cent of control [17] [%]	kinase still bound, per cent of control [18] [%]	kinase still bound, per cent of control [19] [%]	kinase still bound, per cent of control [20] [%]	also measured
COc1cc(C(=O)N2CCC(N3CCN(C)CC3)CC2)ccc1Nc1ncc2c(n1)N(C)c1ccccc1C(=O)N2C	91	97	28	69	62	100	100	28	59	98	100	100	90	67	78	96	84	100	7.5	100	kinase still bound, per cent of control [21]: 78%; kinase still bound, per cent of control [22]: 75%; kinase still bound, per cent of control [23]: 84%; kinase still bound, per cent of control [24]: 99%; kinase still bound, per cent of control [25]: 87%; kinase still bound, per cent of control [26]: 100%; kinase still bound, per cent of control [27]: 96%; kinase still bound, per cent of control [28]: 100%; kinase still bound, per cent of control [29]: 92%; kinase still bound, per cent of control [30]: 40%; kinase still bound, per cent of control [31]: 95%; kinase still bound, per cent of control [32]: 81%; kinase still bound, per cent of control [33]: 100%; kinase still bound, per cent of control [34]: 92%; kinase still bound, per cent of control [35]: 69%; kinase still bound, per cent of control [36]: 95%; kinase still bound, per cent of control [37]: 54%; kinase still bound, per cent of control [38]: 100%; kinase still bound, per cent of control [39]: 89%; kinase still bound, per cent of control [40]: 100%
O=c1cc(N2CCOCC2)oc2c(-c3cccc4c3sc3ccccc34)cccc12	100	100	100	100	98	100	91	80	100	97	66	81	100	92	100	75	87	100	83	98	kinase still bound, per cent of control [21]: 94%; kinase still bound, per cent of control [22]: 80%; kinase still bound, per cent of control [23]: 92%; kinase still bound, per cent of control [24]: 93%; kinase still bound, per cent of control [25]: 98%; kinase still bound, per cent of control [26]: 75%; kinase still bound, per cent of control [27]: 61%; kinase still bound, per cent of control [28]: 6.6%; kinase still bound, per cent of control [29]: 72%; kinase still bound, per cent of control [30]: 89%; kinase still bound, per cent of control [31]: 71%; kinase still bound, per cent of control [32]: 89%; kinase still bound, per cent of control [33]: 100%; kinase still bound, per cent of control [34]: 80%; kinase still bound, per cent of control [35]: 68%; kinase still bound, per cent of control [36]: 100%; kinase still bound, per cent of control [37]: 95%; kinase still bound, per cent of control [38]: 78%; kinase still bound, per cent of control [39]: 89%; kinase still bound, per cent of control [40]: 100%
